Experimental data reported in publication PMC12203311, “Design, synthesis, in silico and in vitro evaluation of pyrrole–indole hybrids as dual tubulin and aromatase inhibitors with potent anticancer activities” (RSC Advances, 2025).

Columns and labels:
K-562 = assay: NCI60 five-dose screen; type: cell-based; details: Homo sapiens, K562, K-562, leukemia; for CC50: read-out: LC50 (the source's name)
EKVX = assay: NCI60 five-dose screen; type: cell-based; details: Homo sapiens, NSC lung cancer; for CC50: read-out: LC50 (the source's name)
NCI-H522 = assay: NCI60 five-dose screen; type: cell-based; details: Homo sapiens, NCI-H522, NSC lung cancer; for CC50: read-out: LC50 (the source's name)
HCC-2998 = assay: NCI60 five-dose screen; type: cell-based; details: Homo sapiens, HCC-2998, colon cancer; for CC50: read-out: LC50 (the source's name)
HT29 = assay: NCI60 five-dose screen; type: cell-based; details: Homo sapiens, HT-29, HT29, colon cancer; for CC50: read-out: LC50 (the source's name)
SW-620 = assay: NCI60 five-dose screen; type: cell-based; details: Homo sapiens, SW-620, colon cancer; for CC50: read-out: LC50 (the source's name)
SF-539 = assay: NCI60 five-dose screen; type: cell-based; details: Homo sapiens, SF-539, CNS cancer; for CC50: read-out: LC50 (the source's name)
SNB-19 = assay: NCI60 five-dose screen; type: cell-based; details: Homo sapiens, SNB-19, CNS cancer; for CC50: read-out: LC50 (the source's name)
M14 = assay: NCI60 five-dose screen; type: cell-based; details: Homo sapiens, M14, melanoma; for CC50: read-out: LC50 (the source's name)
SK-MEL-2 = assay: NCI60 five-dose screen; type: cell-based; details: Homo sapiens, SK-MEL-2, melanoma; for CC50: read-out: LC50 (the source's name)
UACC-62 = assay: NCI60 five-dose screen; type: cell-based; details: Homo sapiens, UACC-62, melanoma; for CC50: read-out: LC50 (the source's name)
OVCAR-3 = assay: NCI60 five-dose screen; type: cell-based; details: Homo sapiens, OVCAR-3, ovarian cancer; for CC50: read-out: LC50 (the source's name)
OVCAR-5 = assay: NCI60 five-dose screen; type: cell-based; details: Homo sapiens, OVCAR-5, ovarian cancer; for CC50: read-out: LC50 (the source's name)
NCI/ADR-RES = assay: NCI60 five-dose screen; type: cell-based, human; details: Homo sapiens, ovarian cancer; for CC50: read-out: LC50 (the source's name)
ACHN = assay: NCI60 five-dose screen; type: cell-based; details: Homo sapiens, renal cancer; for CC50: read-out: LC50 (the source's name)
TK-10 = assay: NCI60 five-dose screen; type: cell-based; details: Homo sapiens, TK-10, renal cancer; for CC50: read-out: LC50 (the source's name)
DU-145 = assay: NCI60 five-dose screen; type: cell-based; details: Homo sapiens, DU-145, prostate cancer; for CC50: read-out: LC50 (the source's name)
MCF7 = assay: NCI60 five-dose screen; type: cell-based; details: Homo sapiens, MCF7, breast cancer; for CC50: read-out: LC50 (the source's name)
MDA-MB-231/ATCC = assay: NCI60 five-dose screen; type: cell-based; details: Homo sapiens, breast cancer; for CC50: read-out: LC50 (the source's name)
T-47D = assay: NCI60 five-dose screen; type: cell-based; details: Homo sapiens, T47D, breast cancer; for CC50: read-out: LC50 (the source's name)
Human CYP19 (aromatase) = molecular target: T1, Human CYP19 (aromatase) (Homo sapiens, UniProt P11511); assay: Aromatase inhibition assay (DBF fluorometric substrate); type: biochemical; details: active defined as IC50 < 12.5 µM
T1 construct: purchased GENTEST, Woburn, MA 456260; host or cells: baculovirus/insect cells
T1 sequence (P11511 1-503): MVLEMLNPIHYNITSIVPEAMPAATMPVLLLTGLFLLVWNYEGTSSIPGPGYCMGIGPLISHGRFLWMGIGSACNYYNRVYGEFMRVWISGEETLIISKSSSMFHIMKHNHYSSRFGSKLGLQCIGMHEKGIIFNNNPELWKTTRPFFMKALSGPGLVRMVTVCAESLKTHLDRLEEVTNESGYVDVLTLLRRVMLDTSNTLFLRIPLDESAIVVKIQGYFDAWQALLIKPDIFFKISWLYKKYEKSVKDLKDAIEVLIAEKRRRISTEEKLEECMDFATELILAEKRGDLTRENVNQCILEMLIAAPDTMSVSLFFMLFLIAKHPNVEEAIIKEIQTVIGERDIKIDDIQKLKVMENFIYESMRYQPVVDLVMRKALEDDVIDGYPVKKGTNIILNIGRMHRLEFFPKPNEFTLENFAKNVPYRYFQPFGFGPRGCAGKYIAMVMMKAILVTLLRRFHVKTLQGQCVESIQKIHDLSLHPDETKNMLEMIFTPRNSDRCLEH
Procedure, shortened: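 Supersomes expressing human CYP19 plus oxidoreductase (baculovirus/insect cell) with fluorometric substrate DBF; cofactor mixture pre-incubated 10 min at 37 °C, reaction run 30 min at 37 °C, stopped with NaOH. Fluorescence read at ex 490/em 530 nm.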

[1] = tested on: T47D breast cancer cell line; assay: Cytotoxicity MTT assay, T47D; type: cell-based, human; details: Homo sapiens, T47D; MTT, 48 hours
Procedure, shortened: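 Cells in DMEM with 10% FBS and penicillin/streptomycin (37 °C, 5% CO2) were seeded at 10 000 per well, grown overnight, then exposed to compounds for 48 hours. MTT (0.5 mg mL^−1) was added for 3 hours, formazan dissolved in DMSO, and absorbance read at 570 nm; viability was expressed against DMSO vehicle.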

Molecule `Cc1[nH]c(/C=N/NC(=O)c2[nH]c3ccc(Br)cc3c2-c2ccccc2)c(C)c1[N+](=O)[O-]` [Derivative 3r, (E)-5-Bromo-N′-((3,5-dimethyl-4-nitro-1H-pyrrol-2-yl)methylene)-3-phenyl-1H-indole-2-carbohydrazide] has a GI50 (K-562) of 2.69 µM, a CC50 (K-562) of over 100 µM and a GI50 (EKVX) of 3.34 µM. The CC50 (EKVX) was 34.9 µM, the GI50 (NCI-H522) was 2.43 µM and the CC50 (NCI-H522) was 29.6 µM. The GI50 (HCC-2998) was 2.41 µM, the CC50 (HCC-2998) was 25.4 µM and the GI50 (HT29) was 1.84 µM. It also gave a CC50 (HT29) of 6.67 µM, a GI50 (SW-620) of 2.06 µM and a CC50 (SW-620) of 19.1 µM. For the same molecule, the GI50 (SF-539) was 3.51 µM, the CC50 (SF-539) was 35.7 µM and the GI50 (SNB-19) was 3.45 µM. It also gave a CC50 (SNB-19) of 43.1 µM, a GI50 (M14) of 2.54 µM and a CC50 (M14) of 36.3 µM. The GI50 (SK-MEL-2) was 2.11 µM, the CC50 (SK-MEL-2) was 22.6 µM and the GI50 (UACC-62) was 2.9 µM. It also gave a CC50 (UACC-62) of 37.5 µM, a GI50 (OVCAR-3) of 1.77 µM and a CC50 (OVCAR-3) of 10.4 µM. The GI50 (OVCAR-5) was 3.53 µM, the CC50 (OVCAR-5) was 41.5 µM and the GI50 (NCI/ADR-RES) was 1.89 µM. The CC50 (NCI/ADR-RES) was 9.15 µM, the GI50 (ACHN) was 3.3 µM and the CC50 (ACHN) was 33.4 µM. The GI50 (TK-10) was 5.1 µM, the CC50 (TK-10) was 41.2 µM and the GI50 (DU-145) was 3.48 µM. The CC50 (DU-145) was 34.9 µM, the GI50 (MCF7) was 2.57 µM and the CC50 (MCF7) was 29.9 µM. For the same molecule, the GI50 (MDA-MB-231/ATCC) was 3.56 µM, the CC50 (MDA-MB-231/ATCC) was 40.5 µM and the GI50 (T-47D) was 2.51 µM. The CC50 (T-47D) was 33.5 µM, the IC50 (Human CYP19 (aromatase)) was 0.2 ± 0.1 µM and the IC50 [1] was 12.3 ± 0.3 µM.

Work on `O=C(N/N=C/c1ccc[nH]1)c1[nH]c2ccc(Br)cc2c1-c1ccccc1` [Derivative 3a, (E)-N′-((1H-Pyrrol-2-yl)methylene)-5-bromo-3-phenyl-1H-indole-2-carbohydrazide] yielded a GI50 (K-562) of 0.202 µM, a CC50 (K-562) of over 100 µM and a GI50 (EKVX) of 1.23 µM. It also gave a CC50 (EKVX) of 33.4 µM, a GI50 (NCI-H522) of 0.045 µM and a CC50 (NCI-H522) of 22 µM. It also gave a GI50 (HCC-2998) of 0.415 µM, a CC50 (HCC-2998) of 19.5 µM and a GI50 (HT29) of 0.329 µM. For the same molecule, the CC50 (HT29) was 9.31 µM, the GI50 (SW-620) was 0.352 µM and the CC50 (SW-620) was 37.4 µM. For the same molecule, the GI50 (SF-539) was 0.202 µM, the CC50 (SF-539) was 14.6 µM and the GI50 (SNB-19) was 0.416 µM. For the same molecule, the CC50 (SNB-19) was 35 µM, the GI50 (M14) was 0.304 µM and the CC50 (M14) was 41.4 µM. For the same molecule, the GI50 (SK-MEL-2) was 0.357 µM, the CC50 (SK-MEL-2) was 38.8 µM and the GI50 (UACC-62) was 0.099 µM. The CC50 (UACC-62) was 8.03 µM, the GI50 (OVCAR-3) was 0.423 µM and the CC50 (OVCAR-3) was 35.3 µM. For the same molecule, the GI50 (OVCAR-5) was 0.437 µM, the CC50 (OVCAR-5) was 30.8 µM and the GI50 (NCI/ADR-RES) was 0.44 µM. For the same molecule, the CC50 (NCI/ADR-RES) was 59.2 µM, the GI50 (ACHN) was 0.355 µM and the CC50 (ACHN) was 21.2 µM. For the same molecule, the GI50 (TK-10) was 2.46 µM, the CC50 (TK-10) was 37.1 µM and the GI50 (DU-145) was 0.429 µM. It also gave a CC50 (DU-145) of 33.3 µM, a GI50 (MCF7) of 0.136 µM and a CC50 (MCF7) of 29.1 µM. The GI50 (MDA-MB-231/ATCC) was 0.396 µM, the CC50 (MDA-MB-231/ATCC) was 21 µM and the GI50 (T-47D) was 0.341 µM. It also gave a CC50 (T-47D) of 51.3 µM, an IC50 (Human CYP19 (aromatase)) of 3.4 ± 0.6 µM and an IC50 [1] of 1.6 ± 1 µM.
